Experimental data taken from article PMC9114115, “Property space mapping of Pseudomonas aeruginosa permeability to small molecules” (Scientific Reports, 2022).
Where a name gives a salt, the structure may show the parent alone.

Assays:
[1] = test system: P. aeruginosa PAO1 cells; assay: LC–MS quantification of intracellular accumulation, PAO1; conditions: 10-80 µM; for Concentration slopes of accumulation, PAO1_1 min: 1 min incubation; for Concentration slopes of accumulation, PAO1_40 min: 40 min incubation;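 as to all read-outs here: slope of accumulation versus external concentration fitted as a line through zero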
Experimental: (§1) PAO1-Pore and PΔ3-Pore were grown at 37 °C overnight with shaking at 225 rpm in 50 mM MOPS-M9 (pH 7.2) Minimal Medium supplemented with 1% glycerol[42],[43].
(§2) The next day, cells were sub-cultured (1.5:100) in fresh MOPS-M9 medium and grown for 16 h. The cultures were then split into two flasks and one of them was induced with 0.1 mM IPTG. Cells incubated for additional 4 h until OD600 reached ~ 1.0 and harvested by centrifugation at 3,275xg for 20 min in RT, washed and concentrated 10X in the spent medium. Assays were performed in 96-well plates in a final volume of […]. Cells were incubated with 10, 20, 40, 80 µM of compounds and after 1- and 40-min incubation at RT, 100 µL cell aliquots were collected by vacuum filtration onto 1.0 µm Glass Fiber Type B filters. For no-cell controls, compounds were diluted to 10, 20, 40, 80 µM final concentration in the same medium, incubated for 1 min and 40 min and filtered onto the same plates. The cell loaded and cell-free filters were dried, removed from plates and placed into 100% methanol at -80 °C for at least 10 min. Filter-bound material was extracted by water bath sonication for 1 min. Cell and filter debris were separated by ultracentrifugation at 45,000 rpm (TLA55 rotor, Beckman) for 8 min at 16 °C and the pellet re-extracted with 80% methanol in water by sonication for 15 min followed by ultracentrifugation at the same conditions. Supernatants from two extractions were combined. For the compound quantification, 5 µL of solution was analyzed in triplicate.
(§3) Calibration curves for MS analyses of compounds were generated in the same experiment by mixing compound at increasing concentrations with the sonicated PAO1 cell extracts. […] Azithromycin was used as a positive control in all experiments.
(§4) Samples were processed in positive ion mode. An Eclipse plus C18 Rapid Resolution HD column (1.8 μm, 2.1 × 50 mm, Agilent, USA) was used for separation. The flow rate was 0.6 mL/min using the following gradient: 0 to 1 min (0- 20% ACN), 1 to 4 min (20- 80% ACN), 4 to 5.1 min (80–100% ACN), 5.1 to 6.30 (100% ACN). Solvents contained 0.1% formic acid to promote positive ion formation in the electrospray. […] Data were analyzed using Agilent Masshunter workstation quantitative analysis v. B.10 software.

[2] = test system: P. aeruginosa PAO1-Pore cells; assay: LC–MS quantification of intracellular accumulation, PAO1-Pore; conditions: 10-80 µM; for Concentration slopes of accumulation, PAO1-Pore_1 min: 1 min incubation; for Concentration slopes of accumulation, PAO1-Pore_40 min: 40 min incubation;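 as to all read-outs here: slope of accumulation versus external concentration fitted as a line through zero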
Experimental: as §1, §2, §3, §4

[3] = test system: P. aeruginosa PΔ3 cells; conditions: 10-80 µM; for Concentration slopes of accumulation, PΔ3_1 min: 1 min incubation; for Concentration slopes of accumulation, PΔ3_40 min: 40 min incubation;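 as to all read-outs here: slope of accumulation versus external concentration fitted as a line through zero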
Experimental: as §1, §2, §3, §4

[4] = test system: P. aeruginosa PΔ3-Pore cells; assay: LC–MS quantification of intracellular accumulation, PΔ3-Pore; conditions: 10-80 µM; for Concentration slopes of accumulation, PΔ3-Pore_1 min: 1 min incubation; for Concentration slopes of accumulation, PΔ3-Pore_40min: 40 min incubation;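 as to all read-outs here: slope of accumulation versus external concentration fitted as a line through zero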
Experimental: as §1, §2, §3, §4

[5] = test system: P. aeruginosa; conditions: for Cluster of the identified "good" permeators: sheet "Good" permeators, all listed compounds are good permeators
Experimental: The measured levels of compound accumulation were analyzed using machine learning to determine which features of the compounds are most important for enabling their cellular accumulation and to determine their optimal values. […] To accentuate the permeability aspect, the accumulation slopes in efflux-deficient and hyperporinated strains were normalized to those in the parental PAO1 strain.
To help visualize the data, we performed a principal component (PC) decomposition of the data.

SMILES: N[C@@H](CC(=O)N1CCn2c(nnc2C(F)(F)F)C1)Cc1cc(F)c(F)cc1F [OU-0000833, Sitagliptin Monophosphate Monohydrate]
- Concentration slopes of accumulation, PAO1_1 min [1]: 7.55
- Concentration slopes of accumulation, PAO1_40 min [1]: 5.67
- Concentration slopes of accumulation, PAO1-Pore_1 min [2]: 4.16
- Concentration slopes of accumulation, PAO1-Pore_40 min [2]: 4.84
- Concentration slopes of accumulation, PΔ3_1 min [3]: 4.36
- Concentration slopes of accumulation, PΔ3_40 min [3]: 4.18
- Concentration slopes of accumulation, PΔ3-Pore_1 min [4]: 4.24
- Concentration slopes of accumulation, PΔ3-Pore_40min [4]: 4.28
- permeator classification [5]: good permeators
- Cluster of the identified "good" permeators [5]: 1

SMILES: CN1C[C@H](C(=O)N[C@]2(C)O[C@@]3(O)[C@@H]4CCCN4C(=O)[C@H](Cc4ccccc4)N3C2=O)C=C2c3cccc4[nH]cc(c34)C[C@H]21 [OU-0000834, Ergotamine Tartrate]
- Concentration slopes of accumulation, PAO1_1 min [1]: 15.91
- Concentration slopes of accumulation, PAO1_40 min [1]: 12.24
- Concentration slopes of accumulation, PAO1-Pore_1 min [2]: 17.94
- Concentration slopes of accumulation, PAO1-Pore_40 min [2]: 20.50
- Concentration slopes of accumulation, PΔ3_1 min [3]: 8.34
- Concentration slopes of accumulation, PΔ3_40 min [3]: 13.59
- Concentration slopes of accumulation, PΔ3-Pore_1 min [4]: 20.02
- Concentration slopes of accumulation, PΔ3-Pore_40min [4]: 15.58
- permeator classification [5]: good permeators
- Cluster of the identified "good" permeators [5]: 3

SMILES: CC1CN=C(c2ccc(NC(=O)Nc3ccc(C4=NCCN4)cc3)cc2)N1.Cl (stereo not drawn) [OU-0001395]
- Concentration slopes of accumulation, PAO1_1 min [1]: 3.79
- Concentration slopes of accumulation, PAO1_40 min [1]: 6.44
- Concentration slopes of accumulation, PAO1-Pore_1 min [2]: 2.72
- Concentration slopes of accumulation, PAO1-Pore_40 min [2]: 7.34
- Concentration slopes of accumulation, PΔ3_1 min [3]: 8.86
- Concentration slopes of accumulation, PΔ3_40 min [3]: 5.05
- Concentration slopes of accumulation, PΔ3-Pore_1 min [4]: 1.38
- Concentration slopes of accumulation, PΔ3-Pore_40min [4]: 4.42
- Cluster of the identified "good" permeators [5]: 1

SMILES: CC(C)(C)OC(=O)N1[C@H](CCC2CCCCC2)CNC(=O)[C@@H]1Cc1cc(F)cc(F)c1 [OU-0032510]
- Concentration slopes of accumulation, PAO1_1 min [1]: 36.86
- Concentration slopes of accumulation, PAO1_40 min [1]: 31.85
- Concentration slopes of accumulation, PAO1-Pore_1 min [2]: 37.26
- Concentration slopes of accumulation, PAO1-Pore_40 min [2]: 28.02
- Concentration slopes of accumulation, PΔ3_1 min [3]: 30.64
- Concentration slopes of accumulation, PΔ3_40 min [3]: 29.44
- Concentration slopes of accumulation, PΔ3-Pore_1 min [4]: 31.28
- Concentration slopes of accumulation, PΔ3-Pore_40min [4]: 28.27
- Cluster of the identified "good" permeators [5]: 3

SMILES: O=C1N[C@@H](Cc2c[nH]c3ccccc23)C(=O)N2CCC[C@@H]12 [OU-0032512]
- Concentration slopes of accumulation, PAO1-Pore_1 min [2]: 3.51
- Concentration slopes of accumulation, PAO1-Pore_40 min [2]: 2.49
- Concentration slopes of accumulation, PΔ3_1 min [3]: 2.98
- Concentration slopes of accumulation, PΔ3_40 min [3]: 3.06
- Concentration slopes of accumulation, PΔ3-Pore_1 min [4]: 2.90
- Concentration slopes of accumulation, PΔ3-Pore_40min [4]: 2.97
- Cluster of the identified "good" permeators [5]: 1
